Experimental data as given in patent US7829665B2 (priority 2005, dated 2010).

biological target: T1, full-length NS3/NS4A-2 (HCV NS3 protease) (Hepatitis C virus genotype 1a, UniProt P27958); assay: NS3-NS4 protease assay / NS3 inhibition assay (RETS1 substrate, fluorescence kinetic read); assay type: biochemical; details: Table 22; read-out: NS3-NS4 IC50
T1 construct: Recombinant E. coli or Baculovirus full-length NS3 was diluted to 3.33 μM with assay buffer; made in house; host or cells: E. coli or baculovirus (BV) expression system
T1 sequence (P27958 1027-1657): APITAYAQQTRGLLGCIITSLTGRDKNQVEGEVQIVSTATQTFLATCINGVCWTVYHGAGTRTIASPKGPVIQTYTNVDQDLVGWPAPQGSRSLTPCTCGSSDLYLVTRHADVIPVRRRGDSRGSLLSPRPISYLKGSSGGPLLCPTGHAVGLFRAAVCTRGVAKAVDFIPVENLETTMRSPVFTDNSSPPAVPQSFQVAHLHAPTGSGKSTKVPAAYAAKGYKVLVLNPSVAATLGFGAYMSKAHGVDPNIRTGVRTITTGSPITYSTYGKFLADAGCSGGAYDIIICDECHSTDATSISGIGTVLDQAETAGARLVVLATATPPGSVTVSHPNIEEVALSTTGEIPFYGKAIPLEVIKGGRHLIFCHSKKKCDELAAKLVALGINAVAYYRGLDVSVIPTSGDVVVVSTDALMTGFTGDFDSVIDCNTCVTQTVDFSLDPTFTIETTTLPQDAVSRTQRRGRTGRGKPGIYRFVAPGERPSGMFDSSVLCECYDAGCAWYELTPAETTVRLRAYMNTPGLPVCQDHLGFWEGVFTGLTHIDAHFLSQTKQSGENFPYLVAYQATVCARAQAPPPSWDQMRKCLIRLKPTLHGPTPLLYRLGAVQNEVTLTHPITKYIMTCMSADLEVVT
Experimental: NS3 complex formation with NS4A-2.
Recombinant E. coli or Baculovirus full-length NS3 was diluted to 3.33 μM with assay buffer and transferred material to an eppendorf tube and place in water bath in 4° C. refrigerator. The appropriate amount of NS4A-2 to 8.3 mM in assay buffer was added to equal the volume of NS3 in step 2.1.1 (conversion factor—3.8 mg/272 μL assay buffer). The material was transferred to an eppendorf tube and place in water bath in 4° C. refrigerator.
After equilibration to 4° C., equal volumes of NS3 and NS4A-2 solutions were combined in an eppendorf tube, mix gently with a manual pipettor, and incubate mixture for 15 minutes in the 4° C. water bath. Final concentrations in the mixture are 1.67 μM NS3, 4.15 mM NS4A-2 (2485-fold molar excess NS4A-2).
After 15 minutes at 4° C., the NS3/NS4A-2 eppendorf tube was removed and place it in a room temperature water bath for 10 minutes. NS3/NS4A-2 was alliquoted at appropriate volumes and store at −80° C. (E. coli NS3 run at 2 nM in assay, aliquot at 25 μL. BV NS3 run at 3 nM in assay, aliquot at 30 μL).
Sample compounds were dissolved to 10 mM in DMSO then diluted to 2.5 mM (1:4) in DMSO. Typically, compounds were added to an assay plate at 2.5 mM concentration, yielding upon dilution a starting concentration of 50 microM in the assay inhibition curve. Compounds were serial diluted in assay buffer to provide test solutions at lower concentrations.
The E. coli. NS3/NS4A-2 was diluted to 4 nM NS3 (1:417.5 of 1.67 μM stock−18 μL 1.67 μM stock+7497 μL assay buffer). The BV NS3/NS4A-2 was diluted to 6 nM NS3 (1:278.3 of 1.67 μM stock−24 μL 1.67 μM stock+6655 μL assay buffer). Using the manual multichannel pipettor, careful not to introduce bubbles into the plate, add 50 μL assay buffer to wells A01-H01 of a black Costar 96-well polypropylene storage plate.
Using the manual multichannel pipettor, careful not to introduce bubbles into the plate, add 50 μL of diluted NS3/NS4A-2 from step 2.2.6 to wells A02-H12 of plate in step 2.2.7. Using the manual multichannel pipettor, careful not to introduce bubbles into the plate, transfer 25 μL of the wells in drug dilution plate in step 2.2.5 to corresponding wells in assay plate in step 2.2.8. Change tips on multichannel pipettor for each row of compounds transferred. Using the manual multichannel pipettor, careful not to introduce bubbles into the plate, mix the wells from the assay plate in step 2.2.9 by aspirating and dispensing 35 μL of the 75 μL in each well five times. Change tips on multichannel pipettor for each row of wells mixed. Cover plate with a polystyrene plate lid and pre-incubate the plate from step 2.2.10 containing NS3 protease and sample compounds 10 minutes at room temperature. While plate from step 2.2.11 is pre-incubating, dilute RETS1 substrate in a 15 mL polypropylene centrifuge tube. Dilute RETS1 substrate to 8 μM (1:80.75 of 646 μM stock−65 μL 646 μM stock+5184 μL assay buffer).
After the plate in step is done pre-incubating, and using the manual multichannel, add 25 μL of substrate to all wells on the plate. Quickly mix the plate as in step 2.2.10, mixing 65 μL of the 100 μL in the wells.
Read the plate in kinetic mode on the Molecular Devices SpectraMax Gemini XS plate reader. Reader settings: Read time: 30 minutes, Interval: 36 seconds, Reads: 51, Excitation λ: 335 nm, Emission λ: 495 nm, cutoff: 475 nm, Automix: off, Calibrate: once, PMT: high, Reads/well: 6, Vmax pts: 21 or 28/51 depending on length of linearity of reaction
IC50 s are determined using a four parameter curve fit equation, and converted to Ki's using the following Km's: • Full-length E. coli NS3—2.03 μM • Full-length BV NS3—1.74 μM where Ki=IC50/(1+[S]/Km)) • Quantitation by ELISA of the selectable marker protein, Neomycin phosphotransferase II (NPTII) in the HCV Sub-Genomic Replicon, GS4.3

| SMILES | IC50 [µM] |
| --- | --- |
| CC(C)(C)OC(=O)N[C@H]1CCCCC/C=C\[C@@H]2C[C@@]2(C(=O)NCC2CC2)NC(=O)[C@@H]2CCCN2C1=O [Compound 2302] | < 10 |
| COc1ccccc1NC(=O)[C@@]12C[C@H]1/C=C\CCCCC[C@H](NC(=O)OC(C)(C)C)C(=O)N1CCC[C@H]1C(=O)N2 [Compound 2313] | < 1 |

same assay, conditions: recombinant E. coli or Baculovirus full-length NS3 with NS4A-2; read-out: NS3-NS4 IC50

| SMILES | IC50 [µM] |
| --- | --- |
| CC(C)(C)OC(=O)N[C@H]1CCCCC/C=C\[C@@H]2C[C@@]2(C(=O)NS(=O)(=O)/C=C/c2ccccc2)NC(=O)[C@@H]2CCCN2C1=O [Compound 2125] | < 1 |
| CC(C)(C)OC(=O)N[C@H]1CCCCC/C=C\[C@@H]2C[C@@]2(C(=O)NS(=O)(=O)N2Cc3ccccc3C2)NC(=O)[C@@H]2CCCN2C1=O [Compound 409] | < 10 |
| CC(C)(C)OC(=O)N[C@H]1CCCCC/C=C\[C@@H]2C[C@@]2(C(=O)NS(=O)(=O)c2cccc(C#N)c2)NC(=O)[C@@H]2CCCN2C1=O [Compound 2152] | < 10 |
| CC(C)(C)OC(=O)N[C@H]1CCCCC/C=C\[C@@H]2C[C@@]2(C(=O)NS(=O)(=O)c2ccc3ccccc3c2)NC(=O)[C@@H]2CCCN2C1=O [Compound 2130] | < 10 |
| Cc1ccc([S@+]([O-])NC(=O)[C@@]23C[C@H]2/C=C\CCCCC[C@H](NC(=O)OC(C)(C)C)C(=O)N2CCC[C@H]2C(=O)N3)cc1 [Compound 2402] | < 0.1 |
| CC(C)(C)OC(=O)N[C@H]1CCCCC/C=C\[C@@H]2C[C@@]2(C(=O)NS(N)(=O)=O)NC(=O)[C@@H]2CCCN2C1=O [Compound 2203] | < 1 |
| CC(C)(C)OC(=O)N[C@H]1CCCCC/C=C\[C@@H]2C[C@@]2(C(=O)NS(=O)(=O)c2cccc(Cl)c2F)NC(=O)[C@@H]2CCCN2C1=O [Compound 2151] | < 1 |
| COCC1(S(=O)(=O)NC(=O)[C@@]23C[C@H]2/C=C\CCCCC[C@H](NC(=O)OC(C)(C)C)C(=O)N2CCC[C@H]2C(=O)N3)CC1 [Compound 302] | < 10 |
| CC(C)(C)OC(=O)N[C@H]1CCCCC/C=C\[C@@H]2C[C@@]2(C(=O)NS(=O)(=O)NC2CCCCC2)NC(=O)[C@@H]2CCCN2C1=O [Compound 2205] | < 1 |
| CC(C)(C)OC(=O)N[C@H]1CCCCC/C=C\[C@@H]2C[C@@]2(C(=O)NS(=O)(=O)NCCc2cccc(Cl)c2)NC(=O)[C@@H]2CCCN2C1=O [Compound 411] | > 10 |
| CN(c1ccc(F)cc1)S(=O)(=O)NC(=O)[C@@]12C[C@H]1/C=C\CCCCC[C@H](NC(=O)OC(C)(C)C)C(=O)N1CCC[C@H]1C(=O)N2 [Compound 2229] | < 10 |
| CCCC1(S(=O)(=O)NC(=O)[C@@]23C[C@H]2/C=C\CCCCC[C@H](NC(=O)OC(C)(C)C)C(=O)N2CCC[C@H]2C(=O)N3)CC1 [Compound 304] | < 10 |
| CC(C)(C)OC(=O)N[C@H]1CCCCC/C=C\[C@@H]2C[C@@]2(C(=O)NS(=O)(=O)NCCc2cccc3ccccc23)NC(=O)[C@@H]2CCCN2C1=O [Compound 422] | > 10 |
| COc1cccc(CCNS(=O)(=O)NC(=O)[C@@]23C[C@H]2/C=C\CCCCC[C@H](NC(=O)OC(C)(C)C)C(=O)N2CCC[C@H]2C(=O)N3)c1 [Compound 414] | > 10 |
| CC(C)(C)OC(=O)N[C@H]1CCCCC/C=C\[C@@H]2C[C@@]2(C(=O)NS(=O)(=O)Cc2cccc(Cl)c2)NC(=O)[C@@H]2CCCN2C1=O [Compound 2118] | < 1 |
| CC(C)(C)OC(=O)N[C@H]1CCCCC/C=C\[C@@H]2C[C@@]2(C(=O)NS(=O)(=O)c2cccc3c(Cl)cccc23)NC(=O)[C@@H]2CCCN2C1=O [Compound 309] | < 10 |
| CC(C)(C)OC(=O)N[C@H]1CCCCC/C=C\[C@@H]2C[C@@]2(C(=O)NS(=O)(=O)NCc2ccncc2)NC(=O)[C@@H]2CCCN2C1=O [Compound 426] | > 10 |
| CN(C)c1ccc(NS(=O)(=O)NC(=O)[C@@]23C[C@H]2/C=C\CCCCC[C@H](NC(=O)OC(C)(C)C)C(=O)N2CCC[C@H]2C(=O)N3)cc1 [Compound 2231] | < 10 |

| SMILES | IC50 [µM] |
| --- | --- |
| CN(C)c1ccc(S(=O)(=O)NC(=O)[C@@]23C[C@H]2/C=C\CCCCC[C@H](NC(=O)OC2CCCC2)C(=O)N2C[C@H](OC(=O)N4CCc5ccccc5C4)C[C@H]2C(=O)N3)cc1 [Compound 183] | < 0.1 |
| C=CCN(C)S(=O)(=O)NC(=O)[C@@]12C[C@H]1/C=C\CCCCC[C@H](NC(=O)OC(C)(C)C)C(=O)N1CCC[C@H]1C(=O)N2 [Compound 412] | < 10 |
| CC(C)(C)OC(=O)N[C@H]1CCCCC/C=C\[C@@H]2C[C@@]2(C(=O)NS(=O)(=O)NC2CC2)NC(=O)[C@@H]2CCCN2C1=O [Compound 2201] | < 1 |
| CC(C)(C)OC(=O)N[C@H]1CCCCC/C=C\[C@@H]2C[C@@]2(C(=O)NS(=O)(=O)C(C)(C)C)NC(=O)[C@@H]2CCCN2C1=O [Compound 303] | > 10 |
| CC(C)(C)OC(=O)N[C@H]1CCCCC/C=C\[C@@H]2C[C@@]2(C(=O)NS(=O)(=O)c2ccc(Br)cc2)NC(=O)[C@@H]2CCCN2C1=O [Compound 2131] | < 10 |
| CC[C@@H]1C[C@H]2C(=O)N[C@]3(C(=O)NS(=O)(=O)C4CC4)C[C@H]3/C=C\CCCCC[C@H](NC(=O)OC(C)(C)C)C(=O)N2C1 [Compound 2145] | > 10 |
| CCCS(=O)(=O)NC(=O)C12CC1C=CCCCCCCCC(NC(=O)OC(C)(C)C)C(=O)N1CCCC1C(=O)N2 (centres unmarked) [Compound 2105] | < 1 |
| CC(C)(C)OC(=O)N[C@H]1CCCCC/C=C\[C@@H]2C[C@@]2(C(=O)NCc2ccncc2)NC(=O)[C@@H]2CCCN2C1=O [Compound 502] | > 10 |
| CCN(C)S(=O)(=O)NC(=O)[C@@]12C[C@H]1/C=C\CCCCC[C@H](NC(=O)OC(C)(C)C)C(=O)N1CCC[C@H]1C(=O)N2 [Compound 400] | < 10 |
| CC(C)(C)OC(=O)N[C@H]1CCCCC/C=C\[C@@H]2C[C@@]2(C(=O)NS(=O)(=O)c2cc3ccccc3s2)NC(=O)[C@@H]2CCCN2C1=O [Compound 307] | < 10 |
| O=C(N[C@H]1CCCCC/C=C\[C@@H]2C[C@@]2(C(=O)NS(=O)(=O)Nc2ccc(Cl)cc2)NC(=O)[C@@H]2CCCN2C1=O)C1CC1 [Compound 428] | < 10 |
| CC(C)(C)OC(=O)N[C@H]1CCCCC/C=C\[C@@H]2C[C@@]2(C(=O)NS(=O)(=O)c2ccccc2Br)NC(=O)[C@@H]2CCCN2C1=O [Compound 2111] | < 10 |
| CC(C)(C)OC(=O)N[C@H]1CCCCC/C=C\[C@@H]2C[C@@]2(C(=O)NS(=O)(=O)c2cc(Cl)sc2Cl)NC(=O)[C@@H]2CCCN2C1=O [Compound 2126] | < 10 |
| CC(C)(C)OC(=O)N[C@H]1CCCCC/C=C\[C@@H]2C[C@@]2(C(=O)NS(=O)(=O)N2CCOCC2)NC(=O)[C@@H]2CCCN2C1=O [Compound 2204] | < 1 |
| CC(C)(C)OC(=O)N[C@H]1CCCCC/C=C\[C@@H]2C[C@@]2(C(=O)NS(=O)(=O)NCCc2ccccc2)NC(=O)[C@@H]2CCCN2C1=O [Compound 2228] | < 10 |
| CC(C)(C)OC(=O)N[C@H]1CCCCC/C=C\[C@@H]2C[C@@]2(C(=O)NS(=O)(=O)NCCc2cccnc2)NC(=O)[C@@H]2CCCN2C1=O [Compound 424] | > 10 |
| CC(C)(C)OC(=O)N[C@H]1CCCCC/C=C\[C@@H]2C[C@@]2(C(=O)NS(=O)(=O)c2ccc(C#N)cc2)NC(=O)[C@@H]2CCCN2C1=O [Compound 2134] | < 1 |
| CC(C)(C)OC(=O)N[C@H]1CCCCC/C=C\[C@@H]2C[C@@]2(C(=O)NS(=O)(=O)c2c(Cl)cc(Cl)cc2Cl)NC(=O)[C@@H]2CCCN2C1=O [Compound 2115] | < 0.1 |
